Source: patent US20200291018A1, “TAM KINASE INHIBITORS” (SYROS PHARMACEUTICALS, INC., priority 2017, published 2020)
pIC50: −log10 of the molar value.

Columns and labels:
MERTK = target: T1, MERTK (Homo sapiens, UniProt Q12866); assay: TR-FRET kinase activity assay, MERTK; format: biochemical; conditions: for pIC50: TR-FRET activity assay, ATP at Km, 60 minutes, read-out: Mer IC50; for Mer/Flt3 ratio (FLT3 IC50/Mer IC50): ratio calculated as FLT3 IC50/Mer IC50
T1 sequence (Q12866 21-999): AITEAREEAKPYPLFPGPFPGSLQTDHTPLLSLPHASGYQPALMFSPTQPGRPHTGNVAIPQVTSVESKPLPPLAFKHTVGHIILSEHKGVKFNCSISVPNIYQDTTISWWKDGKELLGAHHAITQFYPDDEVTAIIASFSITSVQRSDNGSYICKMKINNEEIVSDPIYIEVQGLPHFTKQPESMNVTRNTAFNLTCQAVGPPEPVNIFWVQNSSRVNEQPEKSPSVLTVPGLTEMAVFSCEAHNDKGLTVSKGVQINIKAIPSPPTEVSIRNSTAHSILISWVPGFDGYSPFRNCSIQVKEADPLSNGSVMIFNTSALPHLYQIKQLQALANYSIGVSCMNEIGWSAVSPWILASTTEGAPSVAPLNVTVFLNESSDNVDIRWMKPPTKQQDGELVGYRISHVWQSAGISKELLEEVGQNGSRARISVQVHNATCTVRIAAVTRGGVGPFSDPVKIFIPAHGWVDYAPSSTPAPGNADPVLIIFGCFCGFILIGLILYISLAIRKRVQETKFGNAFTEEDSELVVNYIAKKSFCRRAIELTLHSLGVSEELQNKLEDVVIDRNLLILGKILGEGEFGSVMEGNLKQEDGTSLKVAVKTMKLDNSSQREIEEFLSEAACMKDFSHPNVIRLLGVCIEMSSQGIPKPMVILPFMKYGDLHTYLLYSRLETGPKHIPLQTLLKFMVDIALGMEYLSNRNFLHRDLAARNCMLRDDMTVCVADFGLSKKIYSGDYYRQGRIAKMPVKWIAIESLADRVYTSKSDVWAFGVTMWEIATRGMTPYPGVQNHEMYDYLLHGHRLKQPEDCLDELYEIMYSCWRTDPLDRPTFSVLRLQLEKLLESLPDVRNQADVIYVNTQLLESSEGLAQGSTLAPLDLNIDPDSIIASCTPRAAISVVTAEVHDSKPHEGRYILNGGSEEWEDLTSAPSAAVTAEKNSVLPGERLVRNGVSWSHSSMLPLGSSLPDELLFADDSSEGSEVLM
Method in brief: (§1)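 IC50s come from loss of TR-FRET between a Eu-labeled phospho-site antibody and fluorescent tyrosine-phosphorylated peptide. Kinase reactions, initiated with Km ATP, ran 60 min at RT at pH 7.5 before EDTA quench.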

FLT3 = target: T2, FLT3 (Homo sapiens, UniProt P36888); assay: TR-FRET kinase activity assay, FLT3; format: biochemical; conditions: ATP at Km, 60 minutes
T2 sequence (P36888 27-993): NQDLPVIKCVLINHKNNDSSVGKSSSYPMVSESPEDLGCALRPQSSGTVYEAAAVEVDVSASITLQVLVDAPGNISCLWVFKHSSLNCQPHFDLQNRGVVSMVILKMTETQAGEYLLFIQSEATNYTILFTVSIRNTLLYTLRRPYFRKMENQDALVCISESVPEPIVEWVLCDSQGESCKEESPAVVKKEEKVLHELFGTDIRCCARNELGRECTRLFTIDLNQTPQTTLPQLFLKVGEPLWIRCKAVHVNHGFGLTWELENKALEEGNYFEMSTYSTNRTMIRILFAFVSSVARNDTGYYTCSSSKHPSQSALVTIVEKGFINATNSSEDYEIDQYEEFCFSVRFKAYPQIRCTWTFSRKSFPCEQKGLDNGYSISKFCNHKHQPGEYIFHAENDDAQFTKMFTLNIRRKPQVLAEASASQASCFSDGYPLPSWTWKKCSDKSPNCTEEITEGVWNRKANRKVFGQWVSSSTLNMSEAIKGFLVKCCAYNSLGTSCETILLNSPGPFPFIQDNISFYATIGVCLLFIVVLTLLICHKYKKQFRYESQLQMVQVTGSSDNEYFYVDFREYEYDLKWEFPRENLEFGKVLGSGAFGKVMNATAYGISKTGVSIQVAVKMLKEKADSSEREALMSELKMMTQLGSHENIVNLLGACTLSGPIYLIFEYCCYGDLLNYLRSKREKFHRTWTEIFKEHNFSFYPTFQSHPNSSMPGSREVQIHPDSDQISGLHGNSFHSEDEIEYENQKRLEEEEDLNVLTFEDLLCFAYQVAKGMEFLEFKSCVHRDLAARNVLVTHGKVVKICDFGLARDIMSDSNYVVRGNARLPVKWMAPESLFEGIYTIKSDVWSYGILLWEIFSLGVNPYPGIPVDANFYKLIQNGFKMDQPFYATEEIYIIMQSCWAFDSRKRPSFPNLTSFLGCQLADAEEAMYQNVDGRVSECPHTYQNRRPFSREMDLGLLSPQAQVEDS
Method in brief: as §1

Row | pIC50 (MERTK) | Mer/Flt3 ratio (FLT3 IC50/Mer IC50) (MERTK) | pIC50 (FLT3) | Compound
1 | 6.00 to 7.00 | + (a ratio of >2.0 and <10) | 5.00 to 6.00 | C[C@@H](Nc1ncc2c(OC3CCNCC3)ncc([C@H]3CC[C@H](O)CC3)c2n1)c1ccccc1 [Compound 218]
2 | ≥ 7.00 | ++ (a ratio of between 10 and 100) | 6.00 to 7.00 | CC[C@H](C)Nc1ncc2c(O[C@H]3CC[C@H](O)CC3)ncc([C@H]3CC[C@H](O)CC3)c2n1 [Compound 229]
3 | ≥ 7.00 | +++ (a ratio of >100) | 6.00 to 7.00 | CC[C@H](C)Nc1ncc2c(OCC(F)(F)F)ncc([C@H]3CC[C@H](O)CC3)c2n1 [Compound 245]
4 | ≥ 7.00 | +++ (a ratio of >100) | 5.00 to 6.00 | CC[C@H](C)Nc1ncc2c(=O)n(-c3ccc(N)cc3)cc([C@H]3CC[C@H](O)CC3)c2n1 [Compound 271]
